In patent US6743811B2, “Oxazalidinone compounds and methods of preparation and use thereof” (Pharmacia & Upjohn Company, priority 1999, dated 2004):

Test system: Staphylococcus aureus
Test: MIC by microdilution method (NCCLS), S. aureus
Type: cell-based
Description: Exemplary compounds of formula 1 are as follows. MIC refers to the minimal inhibitory concentration which was determined as described in Example 37.
Minimum inhibitor concentrations (MICs) were determined using the microdilution method according to National Committee for Clinical Laboratory Standards (NCCLS) procedures. Compounds were suspended in DMSO at 10 mg/ml and stored at −20° C. The range of concentrations tested was 64-0.06 μg/ml using two-fold dilutions.
To prepare the inoculum, bacterial cultures were grown overnight at 35° C. on agar plates and each organism was resuspended in 1 ml saline to obtain a 0.5 McFarlands density standard. This was subsequently diluted 1:200 into Mueller-Hinton Broth (MHB) or Haemophilus Test Medium (HTM; for Haemophilus) providing a final inoculum size of 5*10^5 cfu/ml. After inoculation with the bacteria, assay plates were incubated at 35° C. for 18-24 h. […] Gram positive and gram negative strains used included Staphylococcus aureus, Enterococcus faecium, Enterococcus faecalis, Streptococcus pneumoniae, Haemophilus influenzae, Pseudomonas aeruginosa, Escherichia coli, and E. coli (acr)—an efflux pump mutant.

SMILES	MIC (minimal inhibitory concentration)
CC(=S)NC[C@H]1CN(c2ccc(N(C)S(C)(=O)=O)c(F)c2)C(=O)O1	4-8 Tg/mL
CSc1ccc(N2C[C@H](CNC(C)=S)OC2=O)cc1F [drawing 18]	4-8 Tg/mL

Test system: not given
Test: not given

SMILES	melting point
CC(=S)NC[C@H]1CN(c2ccc(C(=O)O)c(F)c2)C(=O)O1	180 to 182 °C
CC(=S)NC[C@H]1CN(c2ccc(C(=O)Oc3c(F)c(F)c(F)c(F)c3F)c(F)c2)C(=O)O1	163 to 164 °C
CNC(=O)c1ccc(N2C[C@H](CNC(C)=S)OC2=O)cc1F	176 to 177 °C
COC(=O)c1ccc(N2C[C@H](CNC(C)=S)OC2=O)cc1F	152 to 154 °C
CC(=S)NC[C@H]1CN(c2ccc(C3=NOCCO3)c(F)c2)C(=O)O1	166 to 167 °C
CC[S+]([O-])c1ccc(N2C[C@H](CNC(C)=S)OC2=O)cc1F (stereo partly drawn)	138 to 139 °C
CSc1ccc(N2C[C@H](CNC(C)=S)OC2=O)cc1F	130 to 131 °C

Second part, the compound after the results:

melting point	SMILES
137 to 188 °C	CC(=S)NC[C@H]1CN(c2ccc(N)c(F)c2)C(=O)O1
200 to 201 °C	CC(=O)Nc1ccc(N2C[C@H](CNC(C)=S)OC2=O)cc1F
188 °C	CC(=S)NC[C@H]1CN(c2ccc(NC(=O)c3ccc([N+](=O)[O-])o3)c(F)c2)C(=O)O1
233 °C	CC(=O)NC[C@H]1CN(c2ccc(NC(=O)c3csnn3)c(F)c2)C(=O)O1
203 to 204 °C	CC(=S)NC[C@H]1CN(c2ccc(NC(=O)c3csnn3)c(F)c2)C(=O)O1
103 to 104 °C	CC(=S)NC[C@H]1CN(c2ccc(N(C)C=S)c(F)c2)C(=O)O1
177 °C	CC(=S)NC[C@H]1CN(c2ccc(C(=O)NN)c(F)c2)C(=O)O1
158 to 160 °C	CC(=S)NC[C@H]1CN(c2ccc([S+](C)[O-])c(F)c2)C(=O)O1 (stereo partly drawn)
161 °C	CC(=S)NC[C@H]1CN(c2ccc([S+]([O-])CCF)c(F)c2)C(=O)O1 (stereo partly drawn)
177 °C	CC(=S)NC[C@H]1CN(c2ccc(S(C)(=O)=O)c(F)c2)C(=O)O1
134 to 135 °C	CC(=S)NC[C@H]1CN(c2ccc(SCCCl)c(F)c2)C(=O)O1
116 to 117 °C	CC(=S)NC[C@H]1CN(c2ccc(Sc3ncc([N+](=O)[O-])s3)c(F)c2)C(=O)O1
